Data taken from patent US10005731B2, “Modulators of the retinoid-related orphan receptor gamma (ROR-gamma) for use in the treatment of autoimmune and inflammatory diseases” (Glaxo Group Limited, priority 2012, dated 2018).
Structures can show the parent of a compound that is named as a salt. Where two headings read alike, the source gives them in different places.

How the values were obtained:
Mouse CD4+ cells = assay: Th17 cell differentiation assay (IL-17 ELISA); type: cell-based
Protocol: Mouse CD4+cells were purified using the CD4+ T Cell Isolation II Kit according to manufacturer's instructions (Miltenyi Biotec). 96 well plates were pre-coated with anti-mCD3 antibody. Un-coated wells were used as controls. CD4+ Cells were resuspended in RPMI 1640 complete medium and were added to the 96-well plates. Cytokine cocktail and the compound were then added to the wells. Antibodies and cytokines (all from R&D Systems) used in the assay were selected from the following: anti-mCD3; anti-mCD28; anti-mIFNγ; anti-mIL4; mIL-6; mIL-23; mIL-1β; hTGF-β1. The culture was incubated at 37° C. for 3 days and supernatants were collected for ELISA. The IL-17 ELISAs were performed according to manufacturer's instructions (R&D Systems). The results were analyzed using Prism software with non-linear regression to determine pIC50.

[1] = In vitro percutaneous study (Franz diffusion cells, aqueous cream); type: in vitro ADME, human
Text: The in vitro percutaneous study is aimed to predict the level of percutaneous penetration obtained for a compound in a topical formulation for psoriasis. This assay coupled with the intrinsic potency of the compound are used to predict the likelihood of success of a compound to engage the target. The higher the ratio of the percutaneous penetration to the intrinsic potency, the higher the ratio of local skin concentration to the intrinsic potency and therefore the higher the chance of a compound to engage the target in a topical formulation.
The compounds were manufactured in a modified aqueous cream at pH=6.
The study was conducted with dermatomed abdominal human skin sourced from three skin donors using 2 cm2 Franz diffusion cells. The receiving fluid consisted of Bovine serum albumin (4% w/v) in 0.1% w/v sodium azide in Phospate Buffer Saline and was heated at 37° C. in order to obtain 32° C. at the skin surface. The cream formulation was applied on the donor side at a 10 mg dose, i.e. 5 mg/cm^2. The samples taken at the following time points: t=0, 3, 6, 9 and 24 h. The receiver samples were then assayed using a method based upon protein precipitation with acetonitrile followed by LC/MS/MS analysis. The percutaneous flux (in ng/cm^2/hr) was determined using the individual API (in a multiple composition) that had permeated into the receiver compartment over 24 hrs per cm^2.

[2] = target: T1, Human RORγ Ligand Binding Domain (RORγ-LBD) (Homo sapiens, UniProt P51449); assay: Dual Fluorescence Energy Transfer (FRET) assay, RORγ-LBD / SRC1(2) co-activator peptide interaction; type: biochemical; conditions: mean of multiple test results if tested more than once; read-out: pIC50 in the dual FRET assay (converted)
T1 construct: made in house; host or cells: E. coli BL21(DE3), modified pET21a
T1 sequence (P51449 263-518): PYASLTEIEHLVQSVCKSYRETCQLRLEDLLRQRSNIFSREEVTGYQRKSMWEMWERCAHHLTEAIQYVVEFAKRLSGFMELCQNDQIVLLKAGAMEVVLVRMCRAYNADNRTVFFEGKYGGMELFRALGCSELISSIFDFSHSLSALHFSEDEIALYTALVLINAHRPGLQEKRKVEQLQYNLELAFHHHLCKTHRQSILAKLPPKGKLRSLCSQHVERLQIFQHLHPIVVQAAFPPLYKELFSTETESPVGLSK
Text: This assay is based on the knowledge that nuclear receptors interact with cofactors (transcription factors) in a ligand dependent manner. RORγ is a typical nuclear receptor in that it has an AF2 domain in the ligand binding domain (LBD) which interacts with co-activators.
The assay measures ligand-mediated interaction of the co-activator peptide with the purified bacterial-expressed RORγ ligand binding domain (RORγ-LBD) to indirectly assess ligand binding. RORγ has a basal level of interaction with the co-activator SRC1(2) in the absence of ligand, thus it is possible to find ligands that inhibit or enhance the RORγ/SRC1(2) interaction.
Human RORγ Ligand Binding Domain (RORγ-LBD) was expressed in E.coli strain BL21(DE3) as an amino-terminal polyhistidine tagged fusion protein. DNA encoding this recombinant protein was sub-cloned into a modified pET21a expression vector (Novagen).
Approximately 50 g E. coli cell pellet was resuspended in 300 mL of lysis buffer (30 mM imidazole pH 7.0 and 150 mM NaCl). Cells were lysed by sonication and cell debris was removed by centrifugation for 30 minutes at 20,000 g at 4° C. […] The clarified lysate was loaded onto a column (XK-26) packed with ProBond Nickel Chelating resin (Invitrogen), pre-equilibrated with 30 mM imidazole pH 7.0 and 150 mM NaCl. After washing to baseline absorbance with the equilibration buffer, the column was developed with a gradient from 30 to 500 mM imidazole pH 7.0. Column fractions containing the RORγ-LBD protein were pooled and concentrated to a volume of 5 mls. The concentrated protein was loaded onto a Superdex 200 column pre-equilibrated with 20 mM Tris-CI pH 7.2 and 200 mM NaCl. The fractions containing the desired RORγ-LBD protein were pooled together.
Purified RORγ-LBD was buffer exchanged by exhaustive dialysis [3 changes of at least 20 volumes (>8000x)] against PBS [100mM NaPhosphate, pH 8 and 150mM NaC1]. […] The modified protein was distributed into aliquots, frozen on dry ice and stored at −80° C. The biotinylated RORγ-LBD was subjected to mass spectrometric analysis to reveal the extent of modification by the biotinylation reagent.
An appropriate amount of Europium labeled Streptavidin was then added to the biotinylated SRC1(2) solution in a tube to give a final concentration of 10 nM. The tube was inverted gently and incubated for 15 minutes at room temperature. Twenty-fold excess biotin from the 10 mM stock solution was added and the tube was inverted gently and incubated for 10 minutes at room temperature.
Preparation of APC labeled RORγ-LBD: biotinylated RORγ-LBD solution was prepared by adding an appropriate amount of biotinylated RORγ-LBD from the stock solution to a buffer containing 10 mM of freshly added DTT from solid to give a final concentration of 40 nM. An appropriate amount of APC labeled Streptavidin was then added to the biotinylated RORγ-LBD solution in a tube to give a final concentration of 20 nM. The tube was inverted gently and incubated for 15 minutes at room temperature. Twenty-fold excess biotin from the 10 mM stock solution was then added and the tube was inverted gently and incubated for 10 minutes at room temperature.
The reaction mixtures were incubated for 5 minutes. […] The plates were incubated for lhr and then read on ViewLux in Lance mode for EU/APC.

[3] = 72 h, mean pIC50, IL-17 ELISA, 3 days culture, detection limit of the assay 5, read-out: pIC50 in the Th17 cell differentiation assay (converted)

| IC50 (Mouse CD4+ cells; table with percutaneous study, read-out: Th17 cell differentiation assay IC50) [ng/mL] | IC50 (Mouse CD4+ cells; table with percutaneous study, read-out: Th17 cell differentiation assay pIC50 (converted)) [nM] | Flux over 24 hrs ([1]; 1.0% w/w in aqueous cream pH=6, 5 mg/cm^2, human skin from three donors) [ng/cm^2/hr] | ratio of percutaneous penetration (Flux) to intrinsic potency (Th17 cell differentiation assay IC50) ([1]; ranking among the three compounds tested) | Compound | IC50 (Mouse CD4+ cells; [3]) [nM] | IC50 [2] [nM] |
| --- | --- | --- | --- | --- | --- | --- |
| 0.4 | 0.794 | 3.43 | highest ratio | Cc1c(CN2CCN(C(=O)C3CCCC3)[C@@H](C)C2)cc(F)cc1NC(=O)c1cccc(C#N)c1 [Example 66, (S)-3-cyano-N-(3-((4-(cyclopentanecarbonyl)-3-methylpiperazin-1-yl)methyl)-5-fluoro-2-methylphenyl)benzamide] | ~0.794 | ~39.8 |
|  |  |  |  | Cc1c(CN2CCN(C(=O)C3CCCC3)[C@@H](C)C2)cc(Cl)cc1NC(=O)c1cccc(C#N)c1 [Example 193, (S)-N-(5-chloro-3-((4-(cyclopentanecarbonyl)-3-methylpiperazin-1-yl)methyl)-2-methylphenyl)-3-cyanobenzamide, trifluoroacetic acid salt] | ~5.01 | ~63.1 |
